The numbers were not newly measured in patent US20210030671A1, “LIQUID DOSAGE FORMS OF CINACALCET OR SALT THEREOF” (FTF PHARMA PRIVATE LIMITED, priority 2018, published 2021), which cites them from elsewhere.

As usually defined, the solubility is the concentration that dissolves in the medium under given conditions.

Counter-ions that a name gives are not always drawn. Like-named read-outs stand apart in the source and are kept apart here. A value given as a limit tells only on which side of the number the result lay.

`C[C@@H](NCCCc1cccc(C(F)(F)F)c1)c1cccc2ccccc12` [Cinacalcet hydrochloride]: the solubility entry is “soluble” (in methanol or 95% ethanol) and “slightly soluble” (in water).

Consider `C[C@@H](NCCCc1cccc(C(F)(F)F)c1)c1cccc2ccccc12` [Cinacalcet, N-[1-(R)-(−)-(1-naphthyl)ethyl]-3-[3-(trifluoromethyl)phenyl]-1-aminopropane], for which the solubility (in water) was less than 1 µg/mL.
